According to ChEMBL document CHEMBL3421583, “Withanolides with antibacterial activity from Nicandra john-tyleriana” (J Nat Prod, 2015):
Calls of active or inactive are those of the source.

Tests used:
Format in all cases: functional, organism-based
Bacillus cereus [1] = assay: Antibacterial activity against Bacillus cereus at 2000 ppm after 24 hrs by bioautographic TLC assay
Bacillus cereus [2] = assay: Antibacterial activity against Bacillus cereus at 2000 ppm after 24 to 48 hrs by disk diffusion method
Bacillus cereus [3] = assay: Bacteriostatic activity against Bacillus cereus BAC1 at 750 ppm after 24 hrs
Bacillus cereus [4] = assay: Bactericidal activity against Bacillus cereus BAC1 at 1000 ppm after 24 hrs

Measured: Activity

C[C@]12CC[C@H]3[C@@H](C[C@H]4O[C@]45CC=CC(=O)[C@]35C)[C@@H]1C[C@@H](O)[C@@H]2[C@@H]1C[C@]2(C)C[C@H]1OC(=O)[C@]2(C)O
active: Bacillus cereus [1] | Bacillus cereus [2]

CC1=C(CO)C(=O)O[C@@H]([C@@H](C)[C@H]2C(=O)C[C@H]3[C@@H]4C[C@H]5O[C@]56CC=CC(=O)[C@]6(C)[C@H]4CC[C@]23C)C1
active: Bacillus cereus [3] | Bacillus cereus [1] | Bacillus cereus [2] | Bacillus cereus [4]
